Reference: publication PMC11694070, “Development of 6-amido-4-aminoisoindolyn-1,3-diones as p70S6K1 inhibitors and potential breast cancer therapeutics” (Frontiers in Molecular Biosciences, 2024)

Experiments:
[1] = target: p70S6K1 (Homo sapiens, UniProt P23443); assay: Z′-LYTE biochemical kinase inhibition assay (SelectScreen, Thermo Fisher); conditions: for inhibition at 10 µM: 10 µM compound concentration, high-throughput single-concentration screen; for IC50 / IC50 of inhibition of p70S6K1: 10-point titration, 3-fold dilutions from 25 μM
Protocol: The high-throughput and dose-response curve assays against kinases were performed using the services of SelectScreen™ Biochemical Kinase Profiling Service by Thermo Fisher Scientific (Table 2; Supplementary Figure S13). The Z ´-LYTE biochemical assay employs a fluorescence-based, coupled-enzyme format based on the differential sensitivity of phosphorylated and non-phosphorylated peptides to proteolytic cleavage. The peptide substrate is labeled with two fluorophores—one at each end—that make up a fluorescence resonance energy transfer (FRET) pair. In the primary reaction, the kinase transfers the gamma-phosphate of ATP to a single tyrosine, serine, or threonine residue in a synthetic FRET-peptide. In the secondary reaction, a site-specific protease recognizes and cleaves non-phosphorylated FRET peptides. Phosphorylation of FRET-peptides suppresses cleavage by the development reagent. Cleavage disrupts FRET between the donor (i.e., coumarin) and acceptor (i.e., fluorescein) fluorophores on the FRET-peptide, whereas uncleaved, phosphorylated FRET-peptides maintain FRET. A ratiometric method, which calculates the emission ratio of donor emission to acceptor emission after excitation of the donor fluorophore at 400 nm, is used to quantitate reaction progress, as shown in the equation below.” Emission ratio=Coumarin emission 445 nm/Flourescein emission 520 nm.
The test compounds were screened in 1% DMSO (final) in the well. For 10-point titrations, 3-fold serial dilutions were conducted from the starting concentration of 25 μM.
All peptide/kinase mixtures are diluted to a 2× working concentration in the appropriate kinase Buffer. The 2X RPS6KB1 (p70S6K)/Ser/Thr 07 mixture is prepared in 50 mM HEPES pH 7.5, 0.01% BRIJ-35, 10 mM MgCl2, 1 mM EGTA. The final 10 µL kinase reaction consists of 2.87–17.7 ng RPS6KB1 (p70S6K) and 2 µM Ser/Thr 07 in 50 mM HEPES pH 7.5, 0.01% BRIJ-35, 10 mM MgCl2, 1 mM EGTA. After the 1 h kinase reaction incubation, 5 µL of a 1:45000 dilution of Development Reagent A is added.
All ATP Solutions are diluted to a 4X working concentration in kinase buffer (50 mM HEPES pH 7.5, 0.01% BRIJ-35, 10 mM MgCl2, 1 mM EGTA). ATP Km apparent was previously determined using a Z′-LYTE assay.
Bar-coded Corning, low volume NBS, black 384-well plate (Corning Cat. #4514). • 1. 100 nL 100X test compound in 100% DMSO • 2. 2.4 µL kinase buffer • 3. 5 μL 2X peptide/kinase mixture • 4. 2.5 µL 4X ATP solution • 5. 30-s plate shake • 6. 60-min kinase reaction incubation at room temperature • 7. 5 μL Development Reagent solution • 8. 30-s plate shake • 9. 60-min Development Reaction incubation at room temperature • 10. Read on the fluorescence plate reader and analyze the data
The SelectScreenTM Biochemical Kinase Profiling Service by ThermoFisher Scientific was used to perform a high-throughput kinase inhibition assay at a single concentration as well as 10-point titrations to generate the dose-response curves for IC50 calculations. The Z′-LYTE biochemical assay, which is a FRET-based assay, was used to analyze the compounds for p70S6K1 inhibition. Compounds 5a–f were subjected to an initial high-throughput screening against p70S6K1 at 10 µM concentration (Table 1).

[2] = tested on: MCF7 E3 cells; assay: MCF-7 E3 cell proliferation assay (alamarBlue); format: cell-based; conditions: Homo sapiens, 10 μM compound, in the presence of E2 (10^−10 M), estrogen-deprived cells
Protocol: Human breast tumor cells MCF-7 subclone E3 were routinely maintained in DMEM medium (Mediatech) supplemented with non-essential amino acid (Gibco), sodium pyruvate (Gibco), L-glutamine (Gibco), gentamicin (Gibco), and 10% fetal bovine serum (FBS) (Hyclone). For the proliferation experiment, the MCF-7 monolayer was dispersed into suspension in DMEM medium with 10% FBS, and 5 × 10^5 cells were seeded into a T-25 flask. The medium was aspirated from the cells, washed with phosphate buffer saline, and cultured with DMEM medium containing dextran-coated charcoal (DCC) FBS for 6 days. After 6 days, the cells were dispersed into suspension, counted, and 1.8 × 10^4 cells per well in a 100 µL DCC medium was subcultured into 96-well plates. After 24 h incubation, the medium was aspirated and replaced with the test compound at 10^−5 M. The cells were dosed again after 3 days and grown for another 3 days. Measurement for cell proliferation was performed with alamarBlue (Bio-Rad) on a plate reader (BioTek Synergy Neo2) with 560 nm excitation and 590 nm emission. The experiments were performed in quadruplicate.
The MCF7 cell line is often used in studies involving ERα overexpressing BC. It is well-established that overexpression of estrogen leads to overexpression of p70S6K1 due to the costimulatory relationship between them, thereby driving the progression of BC ([Fullwood et al., 2009]; [Maruani et al., 2012]). The knockdown or absence of estrogen was partially abrogated by p70S6K1 rescuing and promoting ERα activity ([Holz, 2012]; [Yamnik et al., 2009]). For these reasons, MCF7 cells were used for the proliferation studies in the presence of our p70S6K1 inhibitors. MCF7 E3 cells were grown under estrogen-deprived conditions and treated with 10 μM concentrations of the compounds with and without E2 (10^−10 M). The proliferation was measured using alamarBlue (Figure 5). Compound 5b, with the best p70S6K1 inhibition potency of 0.4 μM IC50 value, inhibited the proliferation of MCF7 E3 cells by 60% in the presence of E2. […] The trend of MCF7 E3 proliferation was directly proportional to the p70S6K1 inhibition potency.

[3] = tested on: rpS6 phosphorylation (S235/236, S240/244); assay: Western blot of rpS6 and phospho-rpS6 in MCF7 cells; format: cell-based, Human; conditions: MCF7 cells estrogen deprived, 5 µM and 10 µM, with β estradiol, 24 h and 48 h
Protocol: Total proteins were isolated using standard protocols as previously described ([Greenberg et al., 2022]; [Kim H. et al., 2013]). In brief, ice-cold RIPA lysis buffer containing phosphatase and protease inhibitors (Santa Cruz Biotechnology, Dallas, TX, USA) was used to lyse cells. The clarified lysate protein concentration was measured using Bradford reagent (Thermo Scientific, Waltham, MA, USA). The proteins were separated using a 4%–20% SDS-PAGE gradient gel and transferred onto a PVDF membrane (Bio-Rad, Hercules, CA, USA). A 1X blocking buffer was used to block the non-specific binding sites. The membranes were washed with Tris-buffered saline (Bio-Rad) containing 0.1% Tween-20 (Sigma-Aldrich, St. Louis, MO, USA). Membranes were incubated overnight with primary antibodies at 4°C. […] Immune complexes were detected with appropriate secondary antibodies from Invitrogen (Camarillo, CA, USA) and Clarity Western ECL Substrate (Bio-Rad), as described ([Greenberg et al., 2022]). […] Results were expressed as the standard error of the mean (±SEM). Significant changes from controls or E2 treated group were determined by a two-tailed Student’s t-test, and p-values of <0.05 were considered significant. […]

[4] = parameters: method as in Li et al., 2010; Motzer et al., 2015; Tolcher et al., 2014; conditions: given with erlotinib and everolimus; ref Li et al., 2010; Motzer et al., 2015; Tolcher et al., 2014; cited from earlier work
[5] = parameters: method as in Pearce et al., 2010; Segatto et al., 2016; conditions: ref Pearce et al., 2010, Segatto et al., 2016, cited from earlier work
[6] = tested on: cervical cancer cells; parameters: method as in Nam et al., 2019; conditions: ref Nam et al., 2019; cited from earlier work

Chain of p70S6K1 (P23443 24-525): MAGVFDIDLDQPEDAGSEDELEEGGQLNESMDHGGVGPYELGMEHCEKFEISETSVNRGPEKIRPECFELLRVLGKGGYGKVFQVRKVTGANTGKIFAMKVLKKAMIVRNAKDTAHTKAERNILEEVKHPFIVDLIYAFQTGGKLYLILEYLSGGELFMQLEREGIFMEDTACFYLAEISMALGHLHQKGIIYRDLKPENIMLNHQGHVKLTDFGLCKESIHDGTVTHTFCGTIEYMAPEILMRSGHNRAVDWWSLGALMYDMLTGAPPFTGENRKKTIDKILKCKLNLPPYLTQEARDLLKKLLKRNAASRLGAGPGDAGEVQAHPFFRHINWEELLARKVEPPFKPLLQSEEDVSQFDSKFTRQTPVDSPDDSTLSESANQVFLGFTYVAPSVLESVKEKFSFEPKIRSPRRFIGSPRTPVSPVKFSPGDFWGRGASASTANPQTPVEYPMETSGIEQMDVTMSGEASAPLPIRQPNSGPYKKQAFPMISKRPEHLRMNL

| SMILES | inhibition at 10 µM [1] [%] | IC50 [1] [nM] | IC50 of inhibition of p70S6K1 [1] | inhibition at 10 µM [2] [%] | other results |
| --- | --- | --- | --- | --- | --- |
| Nc1cc(N)c2c(c1)C(=O)NC2=O [Compound 4, 4,6-diaminoisoindoline-1,3-dione] | 70 | 1200 |  |  |  |
| Nc1cc(NC(=O)C23CC4CC(CC(C4)C2)C3)cc2c1C(=O)NC2=O [Compound 5e, N-(7-amino-1,3-dioxoisoindolin-5-yl)adamantane-1-carboxamide] | 22 |  |  |  |  |
| Cn1cc(-c2ccc(F)c(C(F)(F)F)c2)nc1C1CCN(c2ncnc3[nH]ncc23)CC1 [LY-2584702] |  |  |  |  | tolerability in Phase I trials [4]: not well-tolerated |
| CCc1cncnc1N1CCN(Cc2nc3cc(C(F)(F)F)ccc3[nH]2)CC1 [PF-4708671] |  |  |  |  | tolerability in preclinical studies ([5]; preclinical studies for breast cancer): well-tolerated; blood–brain barrier (BBB) penetration [5]: poor blood–brain barrier (BBB) penetrant |
| COC(=O)[C@@H](Cc1ccc(O)c(O)c1)OC(=O)/C=C/c1ccc(O)c(O)c1 [Rosmarinic acid methyl ester] |  |  |  |  | autophagy and apoptotic cell death [6]: increase in autophagy and apoptotic cell death |

Further lines, with some results ahead:

| inhibition at 10 µM [1] [%] | IC50 [1] [nM] | IC50 of inhibition of p70S6K1 [1] | SMILES | inhibition at 10 µM [2] [%] | other results |
| --- | --- | --- | --- | --- | --- |
| > 90 | 400 | sub-micromolar | Nc1cc(NC(=O)Cc2ccccc2)cc2c1C(=O)NC2=O [Compound 5b, N-(7-amino-1,3-dioxoisoindolin-5-yl)-2-phenylacetamide] | 60 | rpS6 protein expression and phosphorylation (S235/236, S240/244), immunoblot band intensity [3]: significant decreases |
| 80 | 5450 |  | Nc1cc(NC(=O)Cc2ccc(C(F)(F)F)cc2)cc2c1C(=O)NC2=O [Compound 5c, N-(7-amino-1,3-dioxoisoindolin-5-yl)-2-(4-(trifluoromethyl)phenyl)acetamide] | 35 |  |
| > 90 | 510 | sub-micromolar | Nc1cc(NC(=O)Cc2cccc(C(F)(F)F)c2)cc2c1C(=O)NC2=O [Compound 5d, N-(7-amino-1,3-dioxoisoindolin-5-yl)-2-(3-(trifluoromethyl)phenyl)acetamide] | 56 |  |
| 93 | 750 | sub-micromolar | Nc1cc(NC(=O)Cc2ccc(Br)cc2)cc2c1C(=O)NC2=O [Compound 5f, N-(7-amino-1,3-dioxoisoindolin-5-yl)-2-(4-bromophenyl)acetamide] | 40 |  |
